Experimental data reported in the supplement of paper PMC10307832.

Legend:
Experiment in all cases: relative viability (nuclei count vs DMSO), 5 days (fraction); higher = more cells survive
BEN = tested on: BEN
Procedure, shortened: (§1)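 Relative viability was taken as the ratio of nuclei in treated wells to nuclei in vehicle wells. Lung cancer cell lines in 1536-well plates received compounds by pin tool one day after seeding, either one drug alone or a fixed anchor-drug dose plus five library-drug doses (not always all listed) in √10 steps. Nuclei were counted on 4× images after 5 days of treatment, and values are medians of duplicate plates.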

NCI-H460 = tested on: NCI-H460
Procedure, shortened: as §1

NCI-H838 = tested on: NCI-H838
Procedure, shortened: as §1

LOU-NH91 = tested on: LOU-NH91
Procedure, shortened: as §1

NCI-H1437 = tested on: NCI-H1437
Procedure, shortened: as §1

NCI-H1651 = tested on: NCI-H1651
Procedure, shortened: as §1

NCI-H1975 = tested on: NCI-H1975
Procedure, shortened: as §1

NCI-H1734 = tested on: NCI-H1734
Procedure, shortened: as §1

NCI-H1563 = tested on: NCI-H1563
Procedure, shortened: as §1

HCC-366 = tested on: HCC-366
Procedure, shortened: as §1

COR-L23 = tested on: COR-L23
Procedure, shortened: as §1

NCI-H2023 = tested on: NCI-H2023
Procedure, shortened: as §1

SK-LU-1 = tested on: SK-LU-1
Procedure, shortened: as §1

NCI-H358 = tested on: NCI-H358
Procedure, shortened: as §1

NCI-H1650 = tested on: NCI-H1650
Procedure, shortened: as §1

NCI-H1355 = tested on: NCI-H1355
Procedure, shortened: as §1

NCI-H441 = tested on: NCI-H441
Procedure, shortened: as §1

LU99A = tested on: LU99A
Procedure, shortened: as §1

NCI-H2085 = tested on: NCI-H2085
Procedure, shortened: as §1

CAL-12T = tested on: CAL-12T
Procedure, shortened: as §1

## COc1cc2nccc(Oc3ccc(NC(=O)Nc4cc(C)on4)c(Cl)c3)c2cc1OC [Tivozanib] + C[C@@H](Oc1cc(-c2cnn(C3CCNCC3)c2)cnc1N)c1c(Cl)ccc(F)c1Cl [Crizotinib] (partner 1 µM)
BEN; first compound 0.005 µM
  relative viability: 0.966
BEN; first compound 0.01581 µM
  relative viability: 0.865
BEN; first compound 0.05 µM
  relative viability: 0.647
BEN; first compound 0.5 µM
  relative viability: 1.01
NCI-H460; first compound 0.005 µM
  relative viability: 0.889
NCI-H460; first compound 0.01581 µM
  relative viability: 1.09
NCI-H460; first compound 0.05 µM
  relative viability: 0.96
NCI-H460; first compound 0.1581 µM
  relative viability: 0.935
NCI-H460; first compound 0.5 µM
  relative viability: 0.897
NCI-H838; first compound 0.005 µM
  relative viability: 0.886
NCI-H838; first compound 0.01581 µM
  relative viability: 0.82
NCI-H838; first compound 0.05 µM
  relative viability: 0.857
NCI-H838; first compound 0.5 µM
  relative viability: 0.779
LOU-NH91; first compound 0.005 µM
  relative viability: 0.723
LOU-NH91; first compound 0.01581 µM
  relative viability: 0.737
LOU-NH91; first compound 0.05 µM
  relative viability: 0.77
LOU-NH91; first compound 0.1581 µM
  relative viability: 0.774
LOU-NH91; first compound 0.5 µM
  relative viability: 0.708
NCI-H1437; first compound 0.005 µM
  relative viability: 0.899
NCI-H1437; first compound 0.01581 µM
  relative viability: 0.932
NCI-H1437; first compound 0.05 µM
  relative viability: 0.859
NCI-H1437; first compound 0.1581 µM
  relative viability: 0.947
NCI-H1437; first compound 0.5 µM
  relative viability: 0.824
NCI-H1651; first compound 0.005 µM
  relative viability: 0.896
NCI-H1651; first compound 0.01581 µM
  relative viability: 0.91
NCI-H1651; first compound 0.05 µM
  relative viability: 0.796
NCI-H1651; first compound 0.1581 µM
  relative viability: 0.84
NCI-H1651; first compound 0.5 µM
  relative viability: 0.92
NCI-H1975; first compound 0.005 µM
  relative viability: 1.03
NCI-H1975; first compound 0.01581 µM
  relative viability: 0.856
NCI-H1975; first compound 0.05 µM
  relative viability: 0.944
NCI-H1975; first compound 0.1581 µM
  relative viability: 0.833
NCI-H1975; first compound 0.5 µM
  relative viability: 0.826
NCI-H1734; first compound 0.005 µM
  relative viability: 0.616
NCI-H1734; first compound 0.01581 µM
  relative viability: 0.63
NCI-H1734; first compound 0.05 µM
  relative viability: 0.682
NCI-H1734; first compound 0.1581 µM
  relative viability: 0.574
NCI-H1734; first compound 0.5 µM
  relative viability: 0.565
NCI-H1563; first compound 0.005 µM
  relative viability: 0.811
NCI-H1563; first compound 0.01581 µM
  relative viability: 0.857
NCI-H1563; first compound 0.05 µM
  relative viability: 0.81
NCI-H1563; first compound 0.1581 µM
  relative viability: 0.858
NCI-H1563; first compound 0.5 µM
  relative viability: 0.919
HCC-366; first compound 0.005 µM
  relative viability: 0.515
HCC-366; first compound 0.01581 µM
  relative viability: 0.59
HCC-366; first compound 0.05 µM
  relative viability: 0.502
HCC-366; first compound 0.1581 µM
  relative viability: 0.487
HCC-366; first compound 0.5 µM
  relative viability: 0.372
COR-L23; first compound 0.005 µM
  relative viability: 0.622
COR-L23; first compound 0.01581 µM
  relative viability: 0.615
COR-L23; first compound 0.05 µM
  relative viability: 0.659
COR-L23; first compound 0.1581 µM
  relative viability: 0.643
COR-L23; first compound 0.5 µM
  relative viability: 0.543
NCI-H2023; first compound 0.005 µM
  relative viability: 0.555
NCI-H2023; first compound 0.01581 µM
  relative viability: 0.717
NCI-H2023; first compound 0.05 µM
  relative viability: 0.657
NCI-H2023; first compound 0.1581 µM
  relative viability: 0.645
NCI-H2023; first compound 0.5 µM
  relative viability: 0.546
SK-LU-1; first compound 0.005 µM
  relative viability: 0.909
SK-LU-1; first compound 0.01581 µM
  relative viability: 0.864
SK-LU-1; first compound 0.05 µM
  relative viability: 0.932
SK-LU-1; first compound 0.1581 µM
  relative viability: 0.614
SK-LU-1; first compound 0.5 µM
  relative viability: 0.84
NCI-H358; first compound 0.005 µM
  relative viability: 0.594
NCI-H358; first compound 0.01581 µM
  relative viability: 0.706
NCI-H358; first compound 0.05 µM
  relative viability: 0.622
NCI-H358; first compound 0.1581 µM
  relative viability: 0.604
NCI-H358; first compound 0.5 µM
  relative viability: 0.462
NCI-H1650; first compound 0.005 µM
  relative viability: 0.919
NCI-H1650; first compound 0.01581 µM
  relative viability: 1.13
NCI-H1650; first compound 0.05 µM
  relative viability: 0.952
NCI-H1650; first compound 0.1581 µM
  relative viability: 1.09
NCI-H1650; first compound 0.5 µM
  relative viability: 0.866
NCI-H1355; first compound 0.005 µM
  relative viability: 1.03
NCI-H1355; first compound 0.01581 µM
  relative viability: 1.03
NCI-H1355; first compound 0.05 µM
  relative viability: 1.08
NCI-H1355; first compound 0.5 µM
  relative viability: 1.07
NCI-H441; first compound 0.005 µM
  relative viability: 0.688
NCI-H441; first compound 0.01581 µM
  relative viability: 0.676
NCI-H441; first compound 0.05 µM
  relative viability: 0.607
NCI-H441; first compound 0.1581 µM
  relative viability: 0.72
NCI-H441; first compound 0.5 µM
  relative viability: 0.666
LU99A; first compound 0.005 µM
  relative viability: 0.549
LU99A; first compound 0.01581 µM
  relative viability: 0.537
LU99A; first compound 0.05 µM
  relative viability: 0.555
LU99A; first compound 0.5 µM
  relative viability: 0.482
NCI-H2085; first compound 0.005 µM
  relative viability: 0.699
NCI-H2085; first compound 0.01581 µM
  relative viability: 0.87
NCI-H2085; first compound 0.05 µM
  relative viability: 0.912
NCI-H2085; first compound 0.1581 µM
  relative viability: 0.802
NCI-H2085; first compound 0.5 µM
  relative viability: 0.814
CAL-12T; first compound 0.005 µM
  relative viability: 0.649
CAL-12T; first compound 0.01581 µM
  relative viability: 0.552
CAL-12T; first compound 0.05 µM
  relative viability: 0.568
CAL-12T; first compound 0.5 µM
  relative viability: 0.614
